Experimental data reported in patent publication US11697648B2, “Fused pyrimidine pyridinone compounds as JAK inhibitors” (THERAVANCE BIOPHARMA R&D IP, LLC, priority 2019, dated 2023).

Legend:
JAK1 = JAK1 (Homo sapiens (Human), UniProt P23458); test: Biochemical JAK1 kinase assay (LanthaScreen)
Summary of the method: (§1)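 GST-JAK + GFP-STAT1 peptide, HEPES pH 7.5/MgCl2/EGTA/Brij-35 buffer; cpd preincubation 1 h RT; ATP start, 1 h RT; stop with 10 mM EDTA + 2 nM Tb-anti-pSTAT1; TR-FRET 520/495. 4-parameter IC50 → pKi (Cheng-Prusoff).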

JAK3 = JAK3 (Homo sapiens (Human), UniProt P52333); test: Biochemical JAK3 kinase assay (LanthaScreen)
JAK3, sequence (P52333 whole entry): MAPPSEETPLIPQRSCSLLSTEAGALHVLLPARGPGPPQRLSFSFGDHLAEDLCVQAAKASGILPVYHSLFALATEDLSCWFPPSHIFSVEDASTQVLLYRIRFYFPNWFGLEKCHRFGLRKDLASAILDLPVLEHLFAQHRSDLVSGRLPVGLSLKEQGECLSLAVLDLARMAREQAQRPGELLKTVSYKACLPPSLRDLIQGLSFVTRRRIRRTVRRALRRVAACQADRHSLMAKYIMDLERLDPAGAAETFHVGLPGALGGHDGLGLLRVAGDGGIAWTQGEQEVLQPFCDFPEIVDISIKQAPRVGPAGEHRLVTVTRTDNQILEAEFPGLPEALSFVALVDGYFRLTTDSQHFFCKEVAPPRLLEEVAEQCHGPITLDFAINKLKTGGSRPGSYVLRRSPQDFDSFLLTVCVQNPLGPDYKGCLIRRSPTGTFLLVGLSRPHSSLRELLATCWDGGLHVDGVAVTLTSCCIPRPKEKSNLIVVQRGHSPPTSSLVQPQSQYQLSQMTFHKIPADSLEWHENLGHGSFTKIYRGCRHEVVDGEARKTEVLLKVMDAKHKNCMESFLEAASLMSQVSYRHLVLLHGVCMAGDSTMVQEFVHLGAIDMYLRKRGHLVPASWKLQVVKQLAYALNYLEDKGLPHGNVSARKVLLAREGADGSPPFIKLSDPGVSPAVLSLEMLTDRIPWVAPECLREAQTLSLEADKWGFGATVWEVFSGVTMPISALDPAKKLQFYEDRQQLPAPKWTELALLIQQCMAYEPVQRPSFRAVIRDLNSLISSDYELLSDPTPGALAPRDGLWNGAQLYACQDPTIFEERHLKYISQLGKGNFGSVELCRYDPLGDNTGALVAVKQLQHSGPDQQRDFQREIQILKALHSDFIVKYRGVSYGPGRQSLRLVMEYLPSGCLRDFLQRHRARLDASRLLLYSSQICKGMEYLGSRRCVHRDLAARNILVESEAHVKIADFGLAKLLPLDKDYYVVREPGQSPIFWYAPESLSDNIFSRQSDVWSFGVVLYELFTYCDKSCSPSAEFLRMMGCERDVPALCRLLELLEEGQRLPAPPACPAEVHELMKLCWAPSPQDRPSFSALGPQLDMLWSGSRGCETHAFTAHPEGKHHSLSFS
Summary of the method: as §1

[1] = test system: IL-2 stimulated STAT5 phosphorylation in Tall-1 human T cell line (JAK3); test: Cellular JAK3 potency assay: inhibition of IL-2 stimulated pSTAT5 in Tall-1 T cells; type: cell-based
Summary of the method: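 AlphaLISA SureFire Ultra measures STAT5 Tyr694/699 phosphorylation in lysed Tall-1 human T cells. Cells were exposed to compound for 1 h at 37 °C before a 30 min IL-2 challenge (300 ng/ml final). Values are pIC50 means with standard deviation from signal-versus-concentration curves.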

Caco-2 cell monolayers = test: Caco-2 permeation assay; type: in vitro ADME; conditions: 5 μM, A-B direction, with Verapamil (25 μM)
Experimental: Assay 4: Caco-2 Permeation Assay
The Caco-2 permeation assay was performed to model the ability of test compounds to pass through the intestine and get into the blood stream after oral administration. The rate at which test compounds in solution permeate a cell monolayer designed to mimic the tight junction of human small intestinal monolayers was determined.
CacoReady 24-well transwell plates were obtained from ADMEcell (Alameda, Calif.). The compounds were evaluated at a concentration of 5 μM from 10 mM DMSO stock solutions in duplicate (n=2). The passive permeability of the compounds tested was evaluated using Caco-2 cell monolayers along with Verapamil (25 μM) to inhibit P-gp transport proteins in the apical to basolateral (A-B) direction. The experiment was conducted in a 37° C., 5% CO2 incubator. Caco-2 culture media consisted of standard filtered DMEM, FCS 10%, L-Glutamine 1% and PenStrep 1%. Basal assay plate was prepared by adding 750 μL of transport buffer to A-B wells. A CacoReady™ plate was prepared by removing the Caco-2 media from the apical wells and replacing with fresh transport media (200 μL repeated for a total of 3 washes). Blank media (200 μL) was then replaced with diluted compound for A-B wells. To begin the incubation, the basal plate was removed from the incubator and the apical section was added on top of it. Samples (40 μL) were collected from the apical and basal compartments for time zero (t0). Samples were collected again after 120 minutes (t120) from the apical and basal compartments. All samples were diluted and prepared for bioanalysis by LC-MS/MS. The permeation coefficient (Kp, mean A to B+ Verapamil Papparent) in cm/sec was calculated as dQ (flux)/(dt×Area×concentration).
In this assay, a Kp value less than about 5×10^−6 cm/sec is considered favorable to minimize systemic exposure and target the colon. A Kp value less than about 10×10^−6 cm/sec may also be sufficient to minimize systemic exposure and target the colon.

JAK2 = JAK2 (Homo sapiens (Human), UniProt O60674); test: Biochemical JAK2 kinase assay (LanthaScreen)
JAK2, sequence (O60674 whole entry): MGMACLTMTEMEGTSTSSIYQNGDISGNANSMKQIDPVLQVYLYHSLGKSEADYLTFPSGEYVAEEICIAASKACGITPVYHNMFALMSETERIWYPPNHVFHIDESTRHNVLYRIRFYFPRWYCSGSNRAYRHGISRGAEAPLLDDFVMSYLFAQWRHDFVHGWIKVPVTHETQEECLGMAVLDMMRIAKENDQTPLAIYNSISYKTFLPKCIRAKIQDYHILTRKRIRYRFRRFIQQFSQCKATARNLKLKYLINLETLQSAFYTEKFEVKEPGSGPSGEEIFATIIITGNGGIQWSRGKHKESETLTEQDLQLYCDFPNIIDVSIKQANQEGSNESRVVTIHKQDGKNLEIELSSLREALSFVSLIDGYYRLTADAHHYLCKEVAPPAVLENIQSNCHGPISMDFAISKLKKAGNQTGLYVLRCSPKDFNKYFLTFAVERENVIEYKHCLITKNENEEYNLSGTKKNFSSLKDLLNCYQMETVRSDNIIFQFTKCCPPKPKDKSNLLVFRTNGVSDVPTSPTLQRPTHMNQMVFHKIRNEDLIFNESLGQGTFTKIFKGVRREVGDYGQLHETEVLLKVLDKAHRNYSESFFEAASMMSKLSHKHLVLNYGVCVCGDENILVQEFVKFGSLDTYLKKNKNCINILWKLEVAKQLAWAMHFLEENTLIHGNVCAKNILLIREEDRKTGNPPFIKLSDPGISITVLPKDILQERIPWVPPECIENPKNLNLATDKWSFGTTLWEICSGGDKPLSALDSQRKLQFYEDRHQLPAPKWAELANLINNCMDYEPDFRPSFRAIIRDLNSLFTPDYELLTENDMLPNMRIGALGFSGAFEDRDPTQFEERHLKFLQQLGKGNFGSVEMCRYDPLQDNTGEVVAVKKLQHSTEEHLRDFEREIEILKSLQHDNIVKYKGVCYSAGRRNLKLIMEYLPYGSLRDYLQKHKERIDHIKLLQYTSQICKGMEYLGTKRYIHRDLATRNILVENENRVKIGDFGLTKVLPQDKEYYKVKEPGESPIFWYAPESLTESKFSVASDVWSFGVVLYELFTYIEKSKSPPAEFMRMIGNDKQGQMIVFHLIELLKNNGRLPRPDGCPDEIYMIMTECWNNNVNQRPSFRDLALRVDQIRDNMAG
Summary of the method: as §1

Tyk2 = Tyk2 (Homo sapiens (Human), UniProt P29597); test: Biochemical Tyk2 kinase assay (LanthaScreen)
Tyk2, sequence (P29597 whole entry): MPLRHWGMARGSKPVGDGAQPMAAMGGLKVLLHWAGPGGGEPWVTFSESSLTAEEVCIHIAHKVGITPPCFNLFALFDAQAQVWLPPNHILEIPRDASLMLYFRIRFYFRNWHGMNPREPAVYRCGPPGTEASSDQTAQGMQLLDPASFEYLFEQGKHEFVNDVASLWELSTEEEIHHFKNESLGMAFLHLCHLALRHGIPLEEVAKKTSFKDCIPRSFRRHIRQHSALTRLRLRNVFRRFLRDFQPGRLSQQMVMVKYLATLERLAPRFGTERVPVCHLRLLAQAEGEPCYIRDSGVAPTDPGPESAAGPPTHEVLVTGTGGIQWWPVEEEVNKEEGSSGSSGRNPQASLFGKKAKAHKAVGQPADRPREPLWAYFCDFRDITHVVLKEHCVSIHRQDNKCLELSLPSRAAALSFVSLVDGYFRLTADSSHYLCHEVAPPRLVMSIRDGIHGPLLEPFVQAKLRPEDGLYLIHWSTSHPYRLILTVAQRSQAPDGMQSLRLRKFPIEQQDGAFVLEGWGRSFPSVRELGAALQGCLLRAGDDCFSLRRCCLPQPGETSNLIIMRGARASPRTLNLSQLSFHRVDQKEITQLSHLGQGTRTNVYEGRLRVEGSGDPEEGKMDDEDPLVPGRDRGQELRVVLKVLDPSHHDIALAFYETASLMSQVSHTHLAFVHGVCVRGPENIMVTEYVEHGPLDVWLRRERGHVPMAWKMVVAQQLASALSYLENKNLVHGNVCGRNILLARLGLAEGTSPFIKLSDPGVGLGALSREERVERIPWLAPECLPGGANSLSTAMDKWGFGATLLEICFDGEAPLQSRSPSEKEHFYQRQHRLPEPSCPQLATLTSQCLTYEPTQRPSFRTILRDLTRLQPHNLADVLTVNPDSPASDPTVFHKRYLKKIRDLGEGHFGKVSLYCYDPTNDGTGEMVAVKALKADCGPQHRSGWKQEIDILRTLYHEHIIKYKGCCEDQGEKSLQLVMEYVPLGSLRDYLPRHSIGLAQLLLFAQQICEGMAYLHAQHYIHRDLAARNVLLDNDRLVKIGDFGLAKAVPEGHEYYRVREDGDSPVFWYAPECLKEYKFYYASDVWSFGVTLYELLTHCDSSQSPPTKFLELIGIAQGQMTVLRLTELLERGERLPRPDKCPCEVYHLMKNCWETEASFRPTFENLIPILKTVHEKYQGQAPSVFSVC
Summary of the method: as §1

[2] = selectivity JAK3 over JAK1, difference of pKi
[3] = IL-2 stimulated pSTAT5, Tall-1 T cells

JAK1, sequence (P23458 whole entry): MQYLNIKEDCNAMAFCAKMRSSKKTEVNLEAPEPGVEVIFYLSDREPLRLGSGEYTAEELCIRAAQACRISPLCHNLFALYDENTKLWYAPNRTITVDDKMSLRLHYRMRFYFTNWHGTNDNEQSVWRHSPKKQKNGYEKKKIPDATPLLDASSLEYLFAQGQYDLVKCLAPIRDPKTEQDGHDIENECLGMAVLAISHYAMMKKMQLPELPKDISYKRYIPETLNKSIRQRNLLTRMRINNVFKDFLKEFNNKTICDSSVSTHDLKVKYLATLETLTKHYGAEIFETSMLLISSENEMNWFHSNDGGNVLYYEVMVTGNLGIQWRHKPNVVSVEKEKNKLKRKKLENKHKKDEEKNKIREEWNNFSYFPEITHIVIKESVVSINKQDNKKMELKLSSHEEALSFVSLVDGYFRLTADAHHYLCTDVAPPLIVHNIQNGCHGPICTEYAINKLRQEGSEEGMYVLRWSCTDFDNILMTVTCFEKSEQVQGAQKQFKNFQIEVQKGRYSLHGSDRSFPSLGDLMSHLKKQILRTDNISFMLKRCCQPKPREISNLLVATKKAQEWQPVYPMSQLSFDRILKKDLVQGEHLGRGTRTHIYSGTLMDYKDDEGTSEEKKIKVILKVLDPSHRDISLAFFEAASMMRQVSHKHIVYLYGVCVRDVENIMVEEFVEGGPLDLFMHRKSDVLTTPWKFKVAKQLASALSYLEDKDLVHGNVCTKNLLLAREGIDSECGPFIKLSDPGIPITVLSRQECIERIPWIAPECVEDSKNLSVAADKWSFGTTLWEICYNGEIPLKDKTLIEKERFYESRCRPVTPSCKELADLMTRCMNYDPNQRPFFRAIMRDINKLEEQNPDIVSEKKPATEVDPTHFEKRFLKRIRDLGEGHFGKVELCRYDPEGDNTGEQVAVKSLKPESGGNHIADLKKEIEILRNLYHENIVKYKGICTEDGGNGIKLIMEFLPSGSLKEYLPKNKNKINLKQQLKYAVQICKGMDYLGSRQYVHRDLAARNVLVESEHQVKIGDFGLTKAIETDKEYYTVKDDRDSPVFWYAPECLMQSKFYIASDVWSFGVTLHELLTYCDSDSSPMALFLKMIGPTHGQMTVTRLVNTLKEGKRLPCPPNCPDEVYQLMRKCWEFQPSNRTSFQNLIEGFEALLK

Structure (SMILES)	JAK 1 (pKi) (JAK1)	JAK 3 (pKi) (JAK3)	JAK3 (pKi)-JAK1 (pKi) (JAK3; [2])	Tall-1 (pIC50) [1, 3]	Caco Kp (Caco-2 cell monolayers)	JAK 2 (pKi) (JAK2)	Tyk 2 (pKi) (Tyk2)	JAK3 (pKi)-JAK1 (pKi) (JAK3; selectivity, difference of pKi values)	Tall-1 (pIC50) ([1]; IL-2 stimulated pSTAT5 in Tall-1 T cells)
C=CC(=O)N1CC(CCn2c(=O)ccc3cnc(Nc4cnn(C5CCOCC5)c4)nc32)C1 [Example 81]	E (E represents a pKi value of 7 or below (Ki of 100 nM or above))	B (B represents pKi value between 9 and 10 (Ki between 1 nM and 0.1 nM))	A (A represents a value of 3 or above)	B (B represents a pC50 value between 6.7 (included) and 7.5 (IC50 between 200 nM and 32 nM))	A (A represents a value below 5×10^−6 cm/sec)				
C=CC(=O)N1CC(CCn2c(=O)ccc3cnc(Nc4ccc(C5CCN(C)CC5)cc4)nc32)C1 [Example 77]	E (E represents a pKi value of 7 or below (Ki of 100 nM or above))	B (B represents pKi value between 9 and 10 (Ki between 1 nM and 0.1 nM))	A (A represents a value of 3 or above)	B (B represents a pC50 value between 6.7 (included) and 7.5 (IC50 between 200 nM and 32 nM))	A (A represents a value below 5×10^−6 cm/sec)				
C=CC(=O)N1CC(CCn2c(=O)ccc3cnc(Nc4ccc(N5CCSCC5)nc4)nc32)C1 [Example 54]	E (E represents a pKi value of 7 or below (Ki of 100 nM or above))	B (B represents pKi value between 9 and 10 (Ki between 1 nM and 0.1 nM))	A (A represents a value of 3 or above)	C (C represents a pIC50 value between 6 and 6.7 (IC50 between 1 μM and 200 nM))	C (C represents a value between 10×10^−6 and 30×10^−6 cm/sec)				
C=CC(=O)N1CC(CCn2c(=O)ccc3cnc(Nc4cccc(N5CCOCC5)c4)nc32)C1 [Example 28]	E (E represents a pKi value of 7 or below (Ki of 100 nM or above))	B (B represents pKi value between 9 and 10 (Ki between 1 nM and 0.1 nM))	A (A represents a value of 3 or above)	C (C represents a pIC50 value between 6 and 6.7 (IC50 between 1 μM and 200 nM))	C (C represents a value between 10×10^−6 and 30×10^−6 cm/sec)				
C=CC(=O)N1CC(CCn2c(=O)ccc3cnc(Nc4cnn(CC(F)F)c4)nc32)C1 [Example 20]	E (E represents a pKi value of 7 or below (Ki of 100 nM or above))	B (B represents pKi value between 9 and 10 (Ki between 1 nM and 0.1 nM))	A (A represents a value of 3 or above)	C (C represents a pIC50 value between 6 and 6.7 (IC50 between 1 μM and 200 nM))	B (B represents a value between 5×10^−6 and 10×10^−6 cm/sec)				
C=CC(=O)N1CC(CCn2c(=O)ccc3cnc(Nc4cnn(C(F)F)c4)nc32)C1 [Example 36]	E (E represents a pKi value of 7 or below (Ki of 100 nM or above))	B (B represents pKi value between 9 and 10 (Ki between 1 nM and 0.1 nM))	A (A represents a value of 3 or above)	C (C represents a pIC50 value between 6 and 6.7 (IC50 between 1 μM and 200 nM))	C (C represents a value between 10×10^−6 and 30×10^−6 cm/sec)				
C=CC(=O)N1CCN(CCn2c(=O)ccc3cnc(Nc4cnn(C5CCN(C)CC5)c4)nc32)[C@@H](C)C1 [Example 231]	E (E represents a pKi value of 7 or below (Ki of 100 nM or above))	B (B represents pKi value between 9 and 10 (Ki between 1 nM and 0.1 nM))	A (A represents a value of 3 or above)	B (B represents a pC50 value between 6.7 (included) and 7.5 (IC50 between 200 nM and 32 nM))		E (E represents a pKi value of 7 or below (Ki of 100 nM or above))	E (E represents a pKi value of 7 or below (Ki of 100 nM or above))		
C=CC(=O)N1CC(CCn2c(=O)ccc3cnc(Nc4cnn(CCOCC)c4)nc32)C1 [Example 56]	E (E represents a pKi value of 7 or below (Ki of 100 nM or above))	B (B represents pKi value between 9 and 10 (Ki between 1 nM and 0.1 nM))	A (A represents a value of 3 or above)	C (C represents a pIC50 value between 6 and 6.7 (IC50 between 1 μM and 200 nM))		E (E represents a pKi value of 7 or below (Ki of 100 nM or above))	E (E represents a pKi value of 7 or below (Ki of 100 nM or above))		
C=CC(=O)N1CC(CCn2c(=O)ccc3cnc(Nc4ccc(N5CCN(C)CC5)c(C)c4)nc32)C1 [Example 166]	E (E represents a pKi value of 7 or below (Ki of 100 nM or above))	A (A represents a pKi value≥10 (Ki≤0.1 nM))	A (A represents a value of 3 or above)	A (A represents a pIC50 value≥7.5 (IC50≤32 nM))		E (E represents a pKi value of 7 or below (Ki of 100 nM or above))	E (E represents a pKi value of 7 or below (Ki of 100 nM or above))		
C=CC(=O)N1CCN(CCn2c(=O)ccc3cnc(Nc4cnn(-c5ccccc5)c4)nc32)[C@@H](C)C1 [Example 235]	E (E represents a pKi value of 7 or below (Ki of 100 nM or above))	B (B represents pKi value between 9 and 10 (Ki between 1 nM and 0.1 nM))	A (A represents a value of 3 or above)	B (B represents a pC50 value between 6.7 (included) and 7.5 (IC50 between 200 nM and 32 nM))		E (E represents a pKi value of 7 or below (Ki of 100 nM or above))	E (E represents a pKi value of 7 or below (Ki of 100 nM or above))		
C=CC(=O)N1CC(CCn2c(=O)ccc3cnc(Nc4ccc(N5CCN(CCC6CCCCC6)CC5)cc4)nc32)C1 [Example 116]	E (E represents a pKi value of 7 or below (Ki of 100 nM or above))	B (B represents pKi value between 9 and 10 (Ki between 1 nM and 0.1 nM))	B (B represents a value of 2.5 to 3)	B (B represents a pC50 value between 6.7 (included) and 7.5 (IC50 between 200 nM and 32 nM))		E (E represents a pKi value of 7 or below (Ki of 100 nM or above))	E (E represents a pKi value of 7 or below (Ki of 100 nM or above))		
C=CC(=O)N1CCN(CCn2c(=O)ccc3cnc(Nc4cnn(CCOC(F)F)c4)nc32)[C@@H](C)C1 [Example 238]	E (E represents a pKi value of 7 or below (Ki of 100 nM or above))	B (B represents pKi value between 9 and 10 (Ki between 1 nM and 0.1 nM))				E (E represents a pKi value of 7 or below (Ki of 100 nM or above))	E (E represents a pKi value of 7 or below (Ki of 100 nM or above))	A (A represents a value of 3 or above)	C (C represents a pIC50 value between 6 and 6.7 (IC50 between 1 μM and 200 nM))
C=CC(=O)N1CC(CCn2c(=O)ccc3cnc(Nc4ccc5[nH]c(=O)oc5c4)nc32)C1 [Example 59]	E (E represents a pKi value of 7 or below (Ki of 100 nM or above))	B (B represents pKi value between 9 and 10 (Ki between 1 nM and 0.1 nM))	A (A represents a value of 3 or above)	C (C represents a pIC50 value between 6 and 6.7 (IC50 between 1 μM and 200 nM))		E (E represents a pKi value of 7 or below (Ki of 100 nM or above))	E (E represents a pKi value of 7 or below (Ki of 100 nM or above))		
C=CC(=O)N1CC(CCn2c(=O)ccc3cnc(Nc4cccc(CN5CCN(C(=O)OC)CC5)c4)nc32)C1 [Example 111]	E (E represents a pKi value of 7 or below (Ki of 100 nM or above))	B (B represents pKi value between 9 and 10 (Ki between 1 nM and 0.1 nM))	A (A represents a value of 3 or above)	B (B represents a pC50 value between 6.7 (included) and 7.5 (IC50 between 200 nM and 32 nM))		E (E represents a pKi value of 7 or below (Ki of 100 nM or above))	E (E represents a pKi value of 7 or below (Ki of 100 nM or above))		
